This is an account of results in PubChem BioAssay (NCI).

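Where inhibition never reached the appropriate level, the endpoint shown equals the highest concentration tested. Otherwise, values were interpolated linearly from a five-concentration, 48-hour dose response in 96-well plates. At the GI50, growth is halved. At the TGI there is no net growth.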 Where only a bound is given, the exact number is not on record here.

Some test systems named below: TK-10 renal; HCT-116 colon; U251 CNS; HT29 colon; T-47D breast; RPMI-8226 leukemia; OVCAR-3 ovarian; DU-145 prostate; COLO 205 colon; HCT-15 colon.
What all share (assay): NCI-60 cell line screen, 48 h

Turning to `c1cc2c(cn1)Nc1ccncc1S2`, the GI50 in the experiment on TK-10 renal is 42.7 µM; in the experiment with HCT-116 colon, 17.9 µM; in the experiment with U251 CNS it was 44.6 µM; in the experiment on HT29 colon it was 58 µM; with T-47D breast, 34.8 µM; in the experiment with RPMI-8226 leukemia it was 36.3 µM. The GI50 with OVCAR-3 ovarian is 83 µM; in the experiment with DU-145 prostate, 44.5 µM; with COLO 205 colon, 11.8 µM; in the experiment on HCT-15 colon it was 37.4 µM. Also, the TGI was > 100 µM with TK-10 renal; 69.5 µM with HCT-116 colon; > 100 µM with U251 CNS; > 100 µM in the experiment on HT29 colon; > 100 µM in the experiment on T-47D breast; > 100 µM with RPMI-8226 leukemia. Moreover, the TGI with OVCAR-3 ovarian is > 100 µM; in the experiment with DU-145 prostate it was > 100 µM; in the experiment with COLO 205 colon, 59.5 µM; with HCT-15 colon it was > 100 µM.
As to `N#CC1c2ccccc2C=CN1C(=O)N(c1ccccc1)c1ccccc1` (stereo not given), the GI50 in the experiment on TK-10 renal is 1.89 µM; in the experiment with HCT-116 colon, 2.05 µM; with U251 CNS it was 6.59 µM; in the experiment on HT29 colon, 3.56 µM; with T-47D breast, 1.87 µM; with RPMI-8226 leukemia, 2.56 µM. The GI50 in the experiment with OVCAR-3 ovarian was 1.76 µM; in the experiment with DU-145 prostate it was 3.04 µM; in the experiment on COLO 205 colon, 1.83 µM; with HCT-15 colon, 2.51 µM. Besides, the TGI in the experiment on TK-10 renal came to 3.58 µM; in the experiment with HCT-116 colon, 4.35 µM; with U251 CNS it was 19.3 µM; with HT29 colon, 11.5 µM; in the experiment with T-47D breast, 4.45 µM; with RPMI-8226 leukemia, 6.87 µM. Further, the TGI with OVCAR-3 ovarian was 3.18 µM; with DU-145 prostate, 9.36 µM; in the experiment on COLO 205 colon, 3.43 µM; in the experiment on HCT-15 colon, 6.93 µM.
As for `COC(=O)c1ccc(NC(=O)Oc2ccc(N(CCCl)CCCl)cc2)cc1`, the GI50 is 21.6 µM in the experiment on TK-10 renal; 11.2 µM in the experiment on HCT-116 colon; 3.09 µM in the experiment with U251 CNS; 16.5 µM in the experiment with HT29 colon; 2.87 µM with T-47D breast; 6.5 µM in the experiment with RPMI-8226 leukemia. Further, the GI50 was 7.77 µM with OVCAR-3 ovarian, 3.6 µM in the experiment with DU-145 prostate, 9.88 µM in the experiment with COLO 205 colon and 11.2 µM in the experiment with HCT-15 colon. In addition, the TGI in the experiment with TK-10 renal is 58.9 µM; with HCT-116 colon, > 100 µM; in the experiment with U251 CNS it was 41.4 µM; in the experiment on HT29 colon, > 100 µM; in the experiment with T-47D breast it was 50.8 µM; with RPMI-8226 leukemia it was > 100 µM. In addition, the TGI in the experiment with OVCAR-3 ovarian was 22.3 µM; in the experiment on DU-145 prostate, 19.9 µM; in the experiment on COLO 205 colon, > 100 µM; in the experiment on HCT-15 colon it was > 100 µM.
As for `Cc1ccc(S(=O)(=O)NC(CN)C(=O)O)cc1` (stereo not given), the TGI with TK-10 renal, with HCT-116 colon, with U251 CNS, in the experiment on HT29 colon, in the experiment on T-47D breast and in the experiment on RPMI-8226 leukemia was > 100 µM throughout. Further, the TGI in the experiment on OVCAR-3 ovarian, in the experiment on DU-145 prostate, with COLO 205 colon and in the experiment on HCT-15 colon was > 100 µM throughout.
For `COc1ccc(/C(C#N)=C2C=C/C(=N/O)c3ccccc3\2)cc1`, the GI50 with TK-10 renal is 11.3 µM; in the experiment on HCT-116 colon, 0.328 µM; in the experiment with U251 CNS it was 0.446 µM; in the experiment on HT29 colon, 0.705 µM; in the experiment on T-47D breast, 13.7 µM; in the experiment with RPMI-8226 leukemia, 0.371 µM. Further, the GI50 in the experiment on OVCAR-3 ovarian is 0.314 µM; in the experiment with DU-145 prostate, 0.34 µM; with COLO 205 colon, 1.34 µM; in the experiment on HCT-15 colon, 0.168 µM. Also, the TGI in the experiment on TK-10 renal was determined as 28 µM; in the experiment on HCT-116 colon, 11 µM; in the experiment on U251 CNS, 15.1 µM; in the experiment with HT29 colon it was 4.53 µM; with T-47D breast, 39.7 µM; with RPMI-8226 leukemia, 9.76 µM. The TGI was 2.79 µM in the experiment with OVCAR-3 ovarian, 8.85 µM in the experiment with DU-145 prostate, 3.52 µM in the experiment with COLO 205 colon and 4.52 µM in the experiment with HCT-15 colon.
As for `O=C1Cc2cc(C(=O)NC3C[C@H]4CC[C@@H](C3)N4S(=O)(=O)CC3CCN(CCCC(F)(F)F)CC3)c(Cl)cc2N1` (stereo not given in full), the GI50 with TK-10 renal, with HCT-116 colon, in the experiment with U251 CNS, with HT29 colon, with T-47D breast and with RPMI-8226 leukemia was > 100 µM in each case. In addition, the GI50 in the experiment with OVCAR-3 ovarian is > 100 µM; in the experiment on DU-145 prostate, > 100 µM; in the experiment with COLO 205 colon it was 31.2 µM; in the experiment on HCT-15 colon it was > 100 µM. In addition, the TGI in the experiment with TK-10 renal, with HCT-116 colon, in the experiment on U251 CNS, with HT29 colon, in the experiment with T-47D breast and in the experiment with RPMI-8226 leukemia was > 100 µM in each case. Moreover, the TGI in the experiment on OVCAR-3 ovarian, in the experiment with DU-145 prostate, in the experiment on COLO 205 colon and in the experiment with HCT-15 colon was > 100 µM throughout.
Regarding `Cc1cc(N2CCN(C)CC2)n2nc(-c3ccc(Cl)cc3)nc2n1`, the TGI in the experiment with TK-10 renal, in the experiment with HCT-116 colon, in the experiment with U251 CNS, in the experiment on HT29 colon, in the experiment with T-47D breast and with RPMI-8226 leukemia was > 100 µM throughout. Besides, the TGI with OVCAR-3 ovarian, in the experiment with DU-145 prostate, in the experiment on COLO 205 colon and in the experiment with HCT-15 colon was > 100 µM in each case.
For `O=C1/C=C/[C@@H](O)[C@@H]2C[C@@H](O)C[C@H]2/C=C/CCC[C@H](C(F)(F)F)O1`, the GI50 was 0.0888 µM in the experiment on TK-10 renal; 0.153 µM with HCT-116 colon; 1.7 µM with U251 CNS; 0.0678 µM in the experiment on HT29 colon; 0.184 µM in the experiment with T-47D breast; 0.274 µM with RPMI-8226 leukemia. For the same compound, the GI50 was 0.103 µM in the experiment with OVCAR-3 ovarian, 0.955 µM in the experiment with DU-145 prostate, 0.0381 µM in the experiment on COLO 205 colon and 0.32 µM in the experiment with HCT-15 colon. In addition, the TGI in the experiment with TK-10 renal was 0.78 µM; in the experiment with HCT-116 colon it was 0.385 µM; with U251 CNS, > 100 µM; in the experiment with HT29 colon, 0.38 µM; with T-47D breast, 0.52 µM; with RPMI-8226 leukemia, 1.04 µM. In addition, the TGI was 0.464 µM in the experiment on OVCAR-3 ovarian, > 100 µM in the experiment on DU-145 prostate, 0.15 µM with COLO 205 colon and 6.98 µM with HCT-15 colon.
